Reference: patent publication US20230107642A1 (Erasca, Inc., priority 2020, published 2023)

Test: Determination of total drug concentration in rat brain (BBB penetration)
Assay type: in vivo
Settings: male SD rat, 2 mg/kg IV infusion for 4 hours, brain collected at end of 4 hours
Method: BB. Example 9: Determination of Total Drug Concentration in Rat Brain
In Vivo Experimental Procedures
Infuse male SD rat at 2 mg/kg dose for 4 hours through IV administration route. Collect brain tissues at the end of 4 hours.
Sample Preparation Procedures
Dilute brain tissue by adding homogenization solvent (1:4, w/v). Homogenize diluted brain tissue samples. Extract analyte by adding organic solvent (1:4, v/v) with spiked internal standard. Vortex and centrifuge the samples. Remove supernatant and dilute with HPLC compatible solvent (1:3, v/v).
Inject diluted extract into LC-MS/MS system using reversed phase high performance liquid chromatography coupled with electrospray ionization and selected reaction monitoring. Determine the total drug concentration in brain samples by quantitating against the standard curve prepared using the same matrix.
The following data provides blood brain barrier (BBB) penetration activity for a selection of inventive compounds where were directly compared to sotorasib and adagrasib (concentration in brain measured in ng/g).
Compounds that were measured as having a total concentration in the brain of at least 60 ng/g are indicated as “+”.

Compound	BBB activity
C=CC(=O)N1C[C@H](C)N(c2nc(=O)n3c4c(c(-c5cc(Br)c(F)cc5F)c(C(F)(F)F)cc24)SCC2(COC2)C3)C[C@H]1C [Example 13-23]	+ (Compounds that were measured as having a total concentration in the brain of at least 60 ng/g are indicated as “+”)
C=CC(=O)N1[C@H](C)CN(c2nc(=O)n3c4c(c(-c5ccc(F)c(Cl)c5)c(C(F)(F)F)cc24)SC[C@@H](OCOC)C3)C[C@@H]1C [Example 13-78]	− (Compounds that did not meet this threshold are indicated as “−”)
C=CC(=O)N1CCN(c2nc(=O)n3c4c(c(-c5cc(Cl)c(F)cc5F)c(C(F)(F)F)cc24)SC[C@@H]3COC)CC1 (atropisomer, axis not shown) [Example 13-7]	+ (Compounds that were measured as having a total concentration in the brain of at least 60 ng/g are indicated as “+”)
C=CC(=O)N1[C@H](C)CN(c2nc(=O)n3c4c(c(-c5cc(Cl)c(F)cc5F)c(C(F)(F)F)cc24)SC[C@@H](Nc2ncccn2)C3)C[C@@H]1C [Example 13-90]	− (Compounds that did not meet this threshold are indicated as “−”)
C=CC(=O)N1[C@H](C)CN(c2nc(=O)n3c4c(c(-c5cc(Cl)c(F)cc5F)c(C(F)(F)F)cc24)SC[C@@H](N2CCOCC2)C3)C[C@@H]1C [Example 13-84]	− (Compounds that did not meet this threshold are indicated as “−”)
C=CC(=O)N1[C@H](C)CN(c2nc(=O)n3c4c(c(-c5ccc(F)cc5)c(C(F)(F)F)cc24)SC[C@@H](OCC)C3)C[C@@H]1C [Example 13-55]	− (Compounds that did not meet this threshold are indicated as “−”)
C=CC(=O)N1[C@H](C)CN(c2nc(=O)n3c4c(c(-c5ccc(F)cc5)c(C(F)(F)F)cc24)SC[C@H](OCC)C3)C[C@@H]1C [Example 13-41]	+ (Compounds that were measured as having a total concentration in the brain of at least 60 ng/g are indicated as “+”)
C=CC(=O)N1[C@H](C)CN(c2nc(=O)n3c4c(c(-c5cc(Br)c(F)cc5F)c(C(F)(F)F)cc24)SC[C@@H](Oc2cnccn2)C3)C[C@@H]1C [Example 13-42]	+ (Compounds that were measured as having a total concentration in the brain of at least 60 ng/g are indicated as “+”)
C=CC(=O)N1CCN(c2nc(=O)n3c4c(c(-c5ccc(F)cc5F)c(Cl)cc24)SCC3)[C@@H](C)C1 [Example 13-43]	+ (Compounds that were measured as having a total concentration in the brain of at least 60 ng/g are indicated as “+”)
C=CC(=O)N1C[C@H](C)N(c2nc(=O)n3c4c(c(-c5cc(Cl)c(F)cc5F)c(C(F)(F)F)cc24)SCC2(CCOCC2)C3)C[C@H]1C [Example 13-34]	+ (Compounds that were measured as having a total concentration in the brain of at least 60 ng/g are indicated as “+”)
C=CC(=O)N1[C@H](C)CN(c2nc(=O)n3c4c(c(-c5ccc(F)cc5F)c(C(F)(F)F)cc24)SC[C@@H]3COC)C[C@@H]1C [Example 13-13]	+ (Compounds that were measured as having a total concentration in the brain of at least 60 ng/g are indicated as “+”)
C=CC(=O)N1C[C@H](C)N(c2nc(=O)n3c4c(c(-c5ccc(F)cc5F)c(Cl)cc24)OC[C@H]3CCCN2C[C@H]3C[C@@H]2CO3)C[C@H]1C [Example 13-76]	− (Compounds that did not meet this threshold are indicated as “−”)
C=CC(=O)N1[C@H](C)CN(c2nc(=O)n3c4c(c(-c5ccc(F)cc5F)c(C(F)(F)F)cc24)SC[C@@H]3COC)C[C@@H]1C (atropisomer, axis not shown) [Example 13-15]	+ (Compounds that were measured as having a total concentration in the brain of at least 60 ng/g are indicated as “+”)
C=CC(=O)N1C[C@H](C)N(c2nc(=O)n3c4c(c(-c5cc(F)c(F)cc5F)c(C(F)(F)F)cc24)SC[C@@H]3CN2CCN(CC(F)F)CC2)C[C@H]1C [Example 13-57]	− (Compounds that did not meet this threshold are indicated as “−”)
